What was measured:
Format in all cases: in vivo
Lolium rigidum [1] = assay: Pre-emergence herbicidal activity against LOLRI; conditions: dosage 80 g/ha, scored visually after about 3 weeks vs untreated controls
Method in brief: (§1)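 Visual percent rating against untreated controls after roughly 3 weeks in the greenhouse, 0% meaning control-like and 100% dead plants. Treatment was pre-emergence: WP or EC formulations sprayed onto covering soil at 600 l/ha water volume with 0.5% additive.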

Setaria viridis [2] = assay: Pre-emergence herbicidal activity against SETVI; conditions: dosage 80 g/ha, scored visually after about 3 weeks vs untreated controls
Method in brief: as §1

Echinochloa crus-galli [3] = assay: Pre-emergence herbicidal activity against ECHCG; conditions: dosage 80 g/ha, scored visually after about 3 weeks vs untreated controls
Description: (§2) 1. Pre-emergence herbicidal action against harmful plants and crop plant compatibility Seeds of monocotyledonous and dicotyledonous weed plants and crop plants are placed in plastic or wood fiber pots and covered with soil. The compounds of the invention, formulated in the form of wettable powders (WP) or as emulsion concentrates (EC), are then applied onto the surface of the covering soil as aqueous suspension or emulsion with addition of 0.5% additive at a water application rate of 600 l/ha (converted). After the treatment, the pots are placed in a greenhouse and kept under good growth conditions for the trial plants. After about 3 weeks, the effect of the preparations is scored visually in comparison with untreated controls as percentages. For example, 100% activity=the plants have died, 0% activity=like control plants. [table]

Veronica persica [4] = assay: Pre-emergence herbicidal activity against VERPE; conditions: dosage 80 g/ha
Method in brief: as §1

Stellaria media [5] = assay: Post-emergence herbicidal activity against STEME; conditions: dosage 320 g/ha, rated visually after about 3 weeks
Method in brief: (§3)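 Post-emergence greenhouse spray at one-leaf stage, 600 l/ha with 0.5% additive; percent activity rated by eye after about 3 weeks relative to untreated plants.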

Alopecurus myosuroides [6] = assay: Pre-emergence herbicidal activity against ALOMY; conditions: dosage 80 g/ha, scored visually after about 3 weeks vs untreated controls
Method in brief: as §1

Avena fatua [7] = assay: Pre-emergence herbicidal activity against AVEFA; conditions: dosage 80 g/ha, scored visually after about 3 weeks vs untreated controls
Method in brief: as §1

Hordeum murinum [8] = assay: Pre-emergence herbicidal activity against HORMU; conditions: dosage 80 g/ha
Method in brief: as §1

Avena fatua [9] = assay: Post-emergence herbicidal activity against AVEFA; conditions: dosage 320 g/ha, rated visually after about 3 weeks
Method in brief: as §3

Viola tricolor [10] = assay: Post-emergence herbicidal activity against VIOTR; conditions: dosage 320 g/ha, rated visually after about 3 weeks
Method in brief: as §3

Viola tricolor [11] = assay: Pre-emergence herbicidal activity against VIOTR; conditions: dosage 80 g/ha, scored visually after about 3 weeks vs untreated controls
Method in brief: as §1

Stellaria media [12] = assay: Pre-emergence herbicidal activity against STEME; conditions: dosage 80 g/ha, scored visually after about 3 weeks vs untreated controls
Method in brief: as §1

Amaranthus retroflexus [13] = assay: Post-emergence herbicidal activity against AMARE; conditions: dosage 320 g/ha, rated visually after about 3 weeks
Method in brief: as §3

Pharbitis purpurea [14] = assay: Pre-emergence herbicidal activity against PHBPU; conditions: dosage 80 g/ha, scored visually after about 3 weeks vs untreated controls
Description: as §2

Echinochloa crus-galli [15] = assay: Post-emergence herbicidal activity against ECHCG; conditions: dosage 320 g/ha, rated visually after about 3 weeks
Method in brief: as §3

Lolium rigidum [16] = assay: Post-emergence herbicidal activity against LOLRI; conditions: dosage 320 g/ha, rated visually after about 3 weeks
Method in brief: as §3

Alopecurus myosuroides [17] = assay: Post-emergence herbicidal activity against ALOMY; conditions: dosage 320 g/ha, rated visually after about 3 weeks
Method in brief: as §3

Hordeum murinum [18] = assay: Post-emergence herbicidal activity against HORMU; conditions: dosage 320 g/ha, rated visually after about 3 weeks
Method in brief: as §3

Polygonum convolvulus [19] = assay: Post-emergence herbicidal activity against POLCO; conditions: dosage 320 g/ha, rated visually after about 3 weeks
Method in brief: as §3

Veronica persica [20] = assay: Post-emergence herbicidal activity against VERPE; conditions: dosage 320 g/ha, rated visually after about 3 weeks
Method in brief: as §3

Pharbitis purpurea [21] = assay: Post-emergence herbicidal activity against PHBPU; conditions: dosage 320 g/ha, rated visually after about 3 weeks
Method in brief: as §3

Polygonum convolvulus [22] = assay: Pre-emergence herbicidal activity against POLCO; conditions: dosage 80 g/ha, scored visually after about 3 weeks vs untreated controls
Method in brief: as §1

Amaranthus retroflexus [23] = assay: Pre-emergence herbicidal activity against AMARE; conditions: dosage 80 g/ha, scored visually after about 3 weeks vs untreated controls
Method in brief: as §1

Abutilon theophrasti = assay: Post-emergence herbicidal activity against ABUTH; conditions: dosage 320 g/ha, rated visually after about 3 weeks
Method in brief: as §3

Setaria viridis [24] = assay: Post-emergence herbicidal activity against SETVI; conditions: dosage 320 g/ha, rated visually after about 3 weeks
Method in brief: as §3

| SMILES | Pre-emergence herbicidal activity in % against LOLRI (Lolium rigidum [1]) [%] | Pre-emergence herbicidal activity in % against SETVI (Setaria viridis [2]) [%] | Pre-emergence herbicidal activity in % against ECHCG (Echinochloa crus-galli [3]) [%] | Pre-emergence herbicidal activity in % against VERPE (Veronica persica [4]) [%] | Post-emergence herbicidal activity in % against STEME (Stellaria media [5]) [%] | Pre-emergence herbicidal activity in % against ALOMY (Alopecurus myosuroides [6]) [%] | Pre-emergence herbicidal activity in % against AVEVA (AVEFA) (Avena fatua [7]) [%] | Pre-emergence herbicidal activity in % against HORMU (Hordeum murinum [8]) [%] | Post-emergence herbicidal activity in % against AVEFA (Avena fatua [9]) [%] | Post-emergence herbicidal activity in % against VIOTR (Viola tricolor [10]) [%] | Pre-emergence herbicidal activity in % against VIOTR (Viola tricolor [11]) [%] | Pre-emergence herbicidal activity in % against STEME (Stellaria media [12]) [%] | Post-emergence herbicidal activity in % against AMARE (Amaranthus retroflexus [13]) [%] | Pre-emergence herbicidal activity in % against PHBPU (Pharbitis purpurea [14]) [%] | Post-emergence herbicidal activity in % against ECHCG (Echinochloa crus-galli [15]) [%] | Post-emergence herbicidal activity in % against LOLRI (Lolium rigidum [16]) [%] | Post-emergence herbicidal activity in % against ALOMY (Alopecurus myosuroides [17]) [%] | Post-emergence herbicidal activity in % against HORMU (Hordeum murinum [18]) [%] | Post-emergence herbicidal activity in % against POLCO (Polygonum convolvulus [19]) [%] | Post-emergence herbicidal activity in % against VERPE (Veronica persica [20]) [%] | further results |
| --- | --- | --- | --- | --- | --- | --- | --- | --- | --- | --- | --- | --- | --- | --- | --- | --- | --- | --- | --- | --- | --- |
| C=C[C@]1(C(=O)N[C@@H]2CO[C@H](C(=O)NCC(=O)OC)C2)CC(c2cc(F)cc(F)c2)=NO1 [Example I-21] | 100 | 100 | 100 | 90 | 90 | 100 | 100 | 90 | 100 | 90 | 100 | 90 | 90 | 90 | 90 | 90 | 90 | 100 | 90 | 80 | Post-emergence herbicidal activity in % against PHBPU (Pharbitis purpurea [21]): 90%; Pre-emergence herbicidal activity in % against POLCO (Polygonum convolvulus [22]): 100%; Pre-emergence herbicidal activity in % against AMARE (Amaranthus retroflexus [23]): 100%; Post-emergence herbicidal activity in % against ABUTH (Abutilon theophrasti): 90%; Post-emergence herbicidal activity in % against SETVI (Setaria viridis [24]): 90% |
| C[C@]1(C(=O)N[C@@H]2CO[C@H](C(=O)NS(C)(=O)=O)C2)CC(c2cc(F)cc(F)c2)=NO1 [Example I-23] | 100 | 100 | 100 | 90 | 90 | 100 | 100 | 90 | 100 | 80 | 90 | 100 | 80 | 90 | 90 | 100 | 90 | 100 | 90 | 80 | Post-emergence herbicidal activity in % against PHBPU (Pharbitis purpurea [21]): 80%; Pre-emergence herbicidal activity in % against POLCO (Polygonum convolvulus [22]): 100%; Pre-emergence herbicidal activity in % against AMARE (Amaranthus retroflexus [23]): 100%; Post-emergence herbicidal activity in % against ABUTH (Abutilon theophrasti): 80%; Post-emergence herbicidal activity in % against SETVI (Setaria viridis [24]): 80% |
| CONC(=O)[C@@H]1C[C@H](NC(=O)[C@@]2(C)CC(c3cc(F)cc(F)c3)=NO2)CO1 [Example I-24] | 100 | 100 | 90 | 90 | 100 | 100 | 100 | 100 | 100 | 90 | 90 | 90 | 80 | 90 | 100 | 100 | 100 | 100 | 80 | 80 | Post-emergence herbicidal activity in % against PHBPU (Pharbitis purpurea [21]): 90%; Pre-emergence herbicidal activity in % against POLCO (Polygonum convolvulus [22]): 90%; Pre-emergence herbicidal activity in % against AMARE (Amaranthus retroflexus [23]): 100%; Post-emergence herbicidal activity in % against ABUTH (Abutilon theophrasti): 80%; Post-emergence herbicidal activity in % against SETVI (Setaria viridis [24]): 80% |

— US11613522B2, “Herbicidally active 3-phenylisoxazoline-5-carboxamides of tetrahydro- and dihydrofurancarboxamides” (BAYER AKTIENGESELLSCHAFT, priority 2017, dated 2023)
